Calls of active or inactive are those of the source.
Columns and labels:
[1] = system: Escherichia coli; assay: microbe, parasite or virus in culture
[2] = biological target: T1, Aminopeptidase N (Plasmodium falciparum FcB1/Columbia, UniProt O96935); assay: P. falciparum M1AAP inhibitors, biochemical, fluorogenic H-Leu-NHMec substrate, 1536-well (AID 1445); set-up: species or system Plasmodium falciparum 3D7, 3D7
T1 sequence (O96935 whole entry): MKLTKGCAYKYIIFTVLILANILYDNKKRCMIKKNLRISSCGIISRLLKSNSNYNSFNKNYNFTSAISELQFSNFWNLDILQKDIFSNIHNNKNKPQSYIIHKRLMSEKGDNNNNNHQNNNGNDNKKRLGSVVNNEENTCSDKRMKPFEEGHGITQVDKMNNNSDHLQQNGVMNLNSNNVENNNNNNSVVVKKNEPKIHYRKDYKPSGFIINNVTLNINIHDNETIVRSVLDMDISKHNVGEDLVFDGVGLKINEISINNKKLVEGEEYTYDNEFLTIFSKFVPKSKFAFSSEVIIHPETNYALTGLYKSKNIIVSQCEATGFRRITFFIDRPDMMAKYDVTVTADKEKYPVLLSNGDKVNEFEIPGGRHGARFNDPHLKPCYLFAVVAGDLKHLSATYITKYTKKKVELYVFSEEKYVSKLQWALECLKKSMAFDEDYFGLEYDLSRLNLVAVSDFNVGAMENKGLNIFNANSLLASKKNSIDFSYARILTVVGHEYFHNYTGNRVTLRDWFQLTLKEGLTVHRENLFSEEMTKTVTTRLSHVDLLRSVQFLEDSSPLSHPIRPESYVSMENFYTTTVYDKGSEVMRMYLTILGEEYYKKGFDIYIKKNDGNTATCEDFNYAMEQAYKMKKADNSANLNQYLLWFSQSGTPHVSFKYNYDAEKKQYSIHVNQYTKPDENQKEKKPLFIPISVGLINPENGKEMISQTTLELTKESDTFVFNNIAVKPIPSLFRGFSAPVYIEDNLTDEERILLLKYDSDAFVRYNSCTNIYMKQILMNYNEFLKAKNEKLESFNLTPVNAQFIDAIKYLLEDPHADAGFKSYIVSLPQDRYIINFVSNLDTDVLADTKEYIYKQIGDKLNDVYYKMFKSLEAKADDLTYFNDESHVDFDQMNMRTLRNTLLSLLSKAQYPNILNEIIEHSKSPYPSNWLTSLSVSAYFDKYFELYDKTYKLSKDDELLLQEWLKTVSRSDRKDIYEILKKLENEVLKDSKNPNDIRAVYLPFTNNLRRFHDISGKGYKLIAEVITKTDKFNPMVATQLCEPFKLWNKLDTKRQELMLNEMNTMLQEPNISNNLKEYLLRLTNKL

[3] = biological target: T2, Aspartyl aminopeptidase (Plasmodium falciparum 3D7, UniProt Q8I2J3); assay: Counterscreen for inhibitors of M1 and M17 aminopeptidases: QFRET-based biochemical high throughput dose response assay for inhibitors of the Plasmodium falciparum M18 Aspartyl Aminopeptidase (PFM18AAP). [Related PubChem assays: 1619 (Screening assay (M17LAP inhibitors).), 1445 (Screening assay (M1AAP inhibitors).)]
T2 sequence (Q8I2J3 whole entry): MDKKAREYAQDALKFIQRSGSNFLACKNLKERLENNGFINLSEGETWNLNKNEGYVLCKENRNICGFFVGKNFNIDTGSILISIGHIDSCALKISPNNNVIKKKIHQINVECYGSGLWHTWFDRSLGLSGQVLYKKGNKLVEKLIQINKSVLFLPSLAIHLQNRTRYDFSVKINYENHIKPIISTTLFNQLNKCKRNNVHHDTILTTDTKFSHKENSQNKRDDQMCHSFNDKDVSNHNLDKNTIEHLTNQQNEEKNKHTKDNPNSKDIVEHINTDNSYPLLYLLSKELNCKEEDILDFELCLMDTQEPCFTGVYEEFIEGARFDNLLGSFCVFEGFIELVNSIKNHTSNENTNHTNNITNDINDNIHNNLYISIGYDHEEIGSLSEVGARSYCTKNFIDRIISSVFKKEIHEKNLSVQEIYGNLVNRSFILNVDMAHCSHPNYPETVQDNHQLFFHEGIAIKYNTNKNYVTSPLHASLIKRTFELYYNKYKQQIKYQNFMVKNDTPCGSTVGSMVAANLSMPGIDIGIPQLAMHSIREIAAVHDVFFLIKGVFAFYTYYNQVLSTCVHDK

[4] = biological target: T3, SUMO-activating enzyme (Homo sapiens, UniProt Q9UBT2); assay: SUMOylation inhibitor hit validation, confirmation, SUMOylation inhibitor project, biochemical, AlphaScreen (AID 2018); type: functional
T3 sequence (Q9UBE0 whole entry): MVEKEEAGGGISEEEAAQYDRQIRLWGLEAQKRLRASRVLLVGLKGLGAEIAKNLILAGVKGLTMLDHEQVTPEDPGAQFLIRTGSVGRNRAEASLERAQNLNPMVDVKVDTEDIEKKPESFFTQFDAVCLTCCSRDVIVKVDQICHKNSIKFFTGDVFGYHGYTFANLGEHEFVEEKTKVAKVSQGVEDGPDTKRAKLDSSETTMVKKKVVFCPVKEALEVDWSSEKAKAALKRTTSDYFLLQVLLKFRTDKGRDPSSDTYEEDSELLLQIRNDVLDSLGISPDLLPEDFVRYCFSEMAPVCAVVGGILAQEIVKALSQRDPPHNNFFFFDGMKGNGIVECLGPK
T3 sequence (Q9UBT2 whole entry): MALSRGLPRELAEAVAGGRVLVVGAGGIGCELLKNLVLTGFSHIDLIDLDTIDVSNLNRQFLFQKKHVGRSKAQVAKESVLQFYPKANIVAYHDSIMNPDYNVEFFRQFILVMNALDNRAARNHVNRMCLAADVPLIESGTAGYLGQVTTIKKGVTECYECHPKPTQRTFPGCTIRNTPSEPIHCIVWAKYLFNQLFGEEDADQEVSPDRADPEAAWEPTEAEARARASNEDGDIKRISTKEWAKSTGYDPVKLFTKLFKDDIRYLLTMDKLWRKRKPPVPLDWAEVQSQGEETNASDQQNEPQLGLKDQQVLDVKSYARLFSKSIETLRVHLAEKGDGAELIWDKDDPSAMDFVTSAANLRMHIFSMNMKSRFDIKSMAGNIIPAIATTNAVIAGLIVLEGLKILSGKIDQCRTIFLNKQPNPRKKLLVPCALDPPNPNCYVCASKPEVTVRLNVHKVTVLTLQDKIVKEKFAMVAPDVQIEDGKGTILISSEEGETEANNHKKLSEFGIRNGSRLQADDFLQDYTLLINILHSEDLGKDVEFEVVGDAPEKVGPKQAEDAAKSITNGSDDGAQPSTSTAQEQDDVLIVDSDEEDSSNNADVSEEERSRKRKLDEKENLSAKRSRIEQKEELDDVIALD

[5] = biological target: Procathepsin L (Homo sapiens, UniProt P07711); assay: cathepsin L inhibitors, dose response, counter-screen for M1/M17 aminopeptidase inhibitor project, biochemical, QFRET, 1536-well (AID 2214)
Procathepsin L, sequence (P07711 whole entry): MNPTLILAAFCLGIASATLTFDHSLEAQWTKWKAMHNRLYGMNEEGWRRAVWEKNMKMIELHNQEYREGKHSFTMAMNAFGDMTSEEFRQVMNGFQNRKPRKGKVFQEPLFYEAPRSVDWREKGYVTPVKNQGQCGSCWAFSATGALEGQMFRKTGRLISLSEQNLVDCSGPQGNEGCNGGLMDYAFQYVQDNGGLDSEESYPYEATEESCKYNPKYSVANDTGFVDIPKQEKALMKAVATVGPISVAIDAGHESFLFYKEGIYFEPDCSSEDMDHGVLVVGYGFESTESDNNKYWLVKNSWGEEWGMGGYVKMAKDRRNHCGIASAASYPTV

[6] = biological target: T3, SUMO-activating enzyme; assay: inhibitors of in vitro SUMOylation cascade, primary screen, biochemical, HTRF, uHTS (AID 2006); type: protein-complex assay
[7] = biological target: Genome polyprotein (dengue virus type 2, UniProt P29990); assay: Dengue-2 NS5 methyltransferase inhibitors, primary screen, biochemical, confirmation dose response (AID 588689); type: functional
Genome polyprotein, sequence (P29990 2492-3391 limits assumed): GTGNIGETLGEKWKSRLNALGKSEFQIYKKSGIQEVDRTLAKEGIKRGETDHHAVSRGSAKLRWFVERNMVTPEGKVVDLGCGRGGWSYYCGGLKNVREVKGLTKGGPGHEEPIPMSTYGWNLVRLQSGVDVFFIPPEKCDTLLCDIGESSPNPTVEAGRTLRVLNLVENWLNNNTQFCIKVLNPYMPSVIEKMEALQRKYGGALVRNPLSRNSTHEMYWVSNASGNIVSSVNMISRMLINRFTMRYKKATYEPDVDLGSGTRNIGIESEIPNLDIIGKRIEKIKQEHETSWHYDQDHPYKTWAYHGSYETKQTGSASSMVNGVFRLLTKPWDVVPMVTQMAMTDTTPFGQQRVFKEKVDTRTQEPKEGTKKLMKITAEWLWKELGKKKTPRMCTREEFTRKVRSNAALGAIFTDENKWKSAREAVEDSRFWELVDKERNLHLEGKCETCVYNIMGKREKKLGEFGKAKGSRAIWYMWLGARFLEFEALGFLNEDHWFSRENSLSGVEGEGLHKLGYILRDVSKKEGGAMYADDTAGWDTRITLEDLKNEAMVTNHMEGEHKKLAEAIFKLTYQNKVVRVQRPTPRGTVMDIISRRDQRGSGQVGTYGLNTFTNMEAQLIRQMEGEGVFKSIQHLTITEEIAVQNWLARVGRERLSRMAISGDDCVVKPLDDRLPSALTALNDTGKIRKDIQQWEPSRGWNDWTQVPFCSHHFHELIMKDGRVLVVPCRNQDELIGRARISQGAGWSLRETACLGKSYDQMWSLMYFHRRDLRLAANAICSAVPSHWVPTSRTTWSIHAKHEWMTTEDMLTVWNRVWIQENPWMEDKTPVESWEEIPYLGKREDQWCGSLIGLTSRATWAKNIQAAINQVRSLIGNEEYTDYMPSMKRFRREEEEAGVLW

[8] = cytotoxicity in MIN6 insulinoma cells, dose response, cytotoxicity control, cell-based, mouse insulinoma (AID 2122); type: functional;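 further: confirmatory high-throughput counterscreen run to flag cytotoxic compounds; mouse MIN-6 beta cells carrying an insulin promoter eGFP reporter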
[9] = insulin promoter down-regulators in MIN6 cells, imaging, high-content screening, mouse beta cells (AID 1628); type: functional
[10] = biological target: T4, Histone-lysine N-methyltransferase NSD2 (Homo sapiens, UniProt O96028); type: biochemical
T4 sequence (O96028 whole entry): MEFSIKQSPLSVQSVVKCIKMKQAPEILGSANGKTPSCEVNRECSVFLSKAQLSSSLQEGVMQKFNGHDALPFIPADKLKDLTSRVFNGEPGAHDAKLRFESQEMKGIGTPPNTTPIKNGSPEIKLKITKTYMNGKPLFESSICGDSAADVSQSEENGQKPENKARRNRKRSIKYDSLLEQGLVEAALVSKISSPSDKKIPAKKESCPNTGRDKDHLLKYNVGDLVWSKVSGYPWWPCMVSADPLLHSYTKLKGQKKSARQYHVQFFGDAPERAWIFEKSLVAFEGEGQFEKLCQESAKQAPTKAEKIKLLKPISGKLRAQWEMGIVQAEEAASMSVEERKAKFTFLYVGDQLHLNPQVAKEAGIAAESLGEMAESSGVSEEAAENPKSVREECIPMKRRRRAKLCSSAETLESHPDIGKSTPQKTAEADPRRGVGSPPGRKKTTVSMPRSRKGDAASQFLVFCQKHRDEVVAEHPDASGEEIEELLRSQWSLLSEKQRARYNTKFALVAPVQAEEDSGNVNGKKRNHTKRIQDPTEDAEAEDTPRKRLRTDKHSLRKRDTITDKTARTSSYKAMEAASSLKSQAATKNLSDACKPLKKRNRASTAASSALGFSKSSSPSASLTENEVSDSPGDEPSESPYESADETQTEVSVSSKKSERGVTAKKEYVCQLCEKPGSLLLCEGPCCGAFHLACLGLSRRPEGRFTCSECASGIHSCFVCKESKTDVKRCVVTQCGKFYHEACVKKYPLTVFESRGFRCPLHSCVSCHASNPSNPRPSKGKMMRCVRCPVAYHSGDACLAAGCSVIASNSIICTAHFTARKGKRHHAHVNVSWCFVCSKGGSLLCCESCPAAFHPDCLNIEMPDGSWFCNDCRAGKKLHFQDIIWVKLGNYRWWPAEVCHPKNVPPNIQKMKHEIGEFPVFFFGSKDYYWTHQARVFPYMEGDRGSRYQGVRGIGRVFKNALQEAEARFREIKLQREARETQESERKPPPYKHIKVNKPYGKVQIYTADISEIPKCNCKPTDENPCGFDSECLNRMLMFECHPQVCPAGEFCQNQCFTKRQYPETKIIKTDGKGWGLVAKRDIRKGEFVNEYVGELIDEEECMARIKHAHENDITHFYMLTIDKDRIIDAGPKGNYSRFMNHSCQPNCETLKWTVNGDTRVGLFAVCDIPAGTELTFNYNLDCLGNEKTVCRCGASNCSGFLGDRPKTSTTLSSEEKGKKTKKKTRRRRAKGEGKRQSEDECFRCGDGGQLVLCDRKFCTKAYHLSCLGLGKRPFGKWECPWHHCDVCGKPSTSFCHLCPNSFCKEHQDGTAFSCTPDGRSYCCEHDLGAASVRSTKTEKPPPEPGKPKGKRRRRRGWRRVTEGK

[11] = biological target: T5, Alkaline phosphatase, tissue-nonspecific isozyme (Homo sapiens, UniProt P05186); assay: TNAP enzyme inhibition by screening hits, dose response, selectivity assay for mouse IAP inhibitor project, biochemical, human TNAP, uHTS hits (AID 488906); type: functional
T5 sequence (P05186 whole entry): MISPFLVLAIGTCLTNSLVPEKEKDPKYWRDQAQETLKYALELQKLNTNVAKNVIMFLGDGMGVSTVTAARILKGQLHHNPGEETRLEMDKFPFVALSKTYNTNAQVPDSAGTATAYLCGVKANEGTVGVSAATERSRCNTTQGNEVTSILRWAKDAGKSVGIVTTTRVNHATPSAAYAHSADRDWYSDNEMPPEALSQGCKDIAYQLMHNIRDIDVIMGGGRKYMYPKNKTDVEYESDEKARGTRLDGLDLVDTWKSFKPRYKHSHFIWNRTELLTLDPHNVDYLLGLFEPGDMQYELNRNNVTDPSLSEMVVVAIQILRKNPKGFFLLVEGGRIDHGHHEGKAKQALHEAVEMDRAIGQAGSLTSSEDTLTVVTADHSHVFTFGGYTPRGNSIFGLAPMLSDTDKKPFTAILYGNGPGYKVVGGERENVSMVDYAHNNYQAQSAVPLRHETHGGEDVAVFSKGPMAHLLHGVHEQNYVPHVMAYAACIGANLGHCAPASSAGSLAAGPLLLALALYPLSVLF

[12] = biological target: Intestinal-type alkaline phosphatase (Homo sapiens, UniProt P09923); assay: inhibition of human intestinal alkaline phosphatase – biochemical, dose response (AID 488876); type: functional
Intestinal-type alkaline phosphatase (Homo sapiens, UniProt P09923), sequence (P09923 whole entry): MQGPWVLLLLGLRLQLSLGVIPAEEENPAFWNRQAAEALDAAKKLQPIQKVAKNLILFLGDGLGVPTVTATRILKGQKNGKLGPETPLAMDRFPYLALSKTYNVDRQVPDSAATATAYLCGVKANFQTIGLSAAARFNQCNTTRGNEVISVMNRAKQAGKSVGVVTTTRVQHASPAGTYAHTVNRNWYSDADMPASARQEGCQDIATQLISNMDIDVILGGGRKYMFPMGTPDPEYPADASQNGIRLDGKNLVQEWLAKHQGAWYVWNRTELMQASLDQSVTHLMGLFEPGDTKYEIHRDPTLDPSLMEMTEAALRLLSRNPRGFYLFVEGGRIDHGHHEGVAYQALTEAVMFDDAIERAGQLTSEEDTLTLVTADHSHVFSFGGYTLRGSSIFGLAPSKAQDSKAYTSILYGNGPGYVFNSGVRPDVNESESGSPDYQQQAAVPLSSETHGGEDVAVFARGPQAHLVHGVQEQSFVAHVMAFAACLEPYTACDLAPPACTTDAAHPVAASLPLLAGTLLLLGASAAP

[13] = biological target: Intestinal-type alkaline phosphatase (Mus musculus, UniProt P24822); assay: PubChem AID 488785; type: functional
[14] = biological target: Cytochrome P450 3A4 (Homo sapiens, UniProt P08684);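 further: CYP3A4 tested as one member of a cytochrome P450 panel screen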
Cytochrome P450 3A4, sequence (P08684 whole entry): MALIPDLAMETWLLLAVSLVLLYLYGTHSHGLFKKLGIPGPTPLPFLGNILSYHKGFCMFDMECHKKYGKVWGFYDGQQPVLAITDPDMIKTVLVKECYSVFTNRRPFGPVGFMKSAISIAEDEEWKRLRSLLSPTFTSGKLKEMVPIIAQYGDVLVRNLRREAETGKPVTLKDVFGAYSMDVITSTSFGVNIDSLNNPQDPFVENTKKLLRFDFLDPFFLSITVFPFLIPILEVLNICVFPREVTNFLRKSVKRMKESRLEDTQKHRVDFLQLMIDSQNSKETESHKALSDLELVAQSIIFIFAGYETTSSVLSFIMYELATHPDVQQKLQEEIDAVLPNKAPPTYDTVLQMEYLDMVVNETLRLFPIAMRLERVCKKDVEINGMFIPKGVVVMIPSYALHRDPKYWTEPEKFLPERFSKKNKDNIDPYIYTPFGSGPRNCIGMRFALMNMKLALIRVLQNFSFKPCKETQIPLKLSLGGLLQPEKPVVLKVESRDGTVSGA

[15] = biological target: Nonstructural protein 1 (Influenza A virus, UniProt Q194T2); type: functional, Influenza A virus (A/California/07/2009(H1N1))
Nonstructural protein 1, sequence (Q194T2 whole entry): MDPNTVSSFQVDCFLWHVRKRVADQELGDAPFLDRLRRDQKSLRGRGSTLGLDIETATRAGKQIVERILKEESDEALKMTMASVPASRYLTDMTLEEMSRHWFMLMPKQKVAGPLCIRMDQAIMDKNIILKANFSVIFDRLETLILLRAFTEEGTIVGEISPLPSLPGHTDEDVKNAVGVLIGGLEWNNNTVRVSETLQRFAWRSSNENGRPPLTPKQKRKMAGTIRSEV

[16] = cells; type: functional, cell-based
[17] = cells; type: functional, cell-based; remark: listed apart in the source
[18] = biological target: T6, E3 ubiquitin-protein ligase XIAP (Homo sapiens, UniProt P98170); assay: SAR analysis of Antagonists of IAP-family anti-apoptotic proteins. [Related pubchem assays (depositor defined):AID1018, AID1449, AID1513, AID1514, AID1638]
T6 sequence (P98170 whole entry, the tested form may be a part): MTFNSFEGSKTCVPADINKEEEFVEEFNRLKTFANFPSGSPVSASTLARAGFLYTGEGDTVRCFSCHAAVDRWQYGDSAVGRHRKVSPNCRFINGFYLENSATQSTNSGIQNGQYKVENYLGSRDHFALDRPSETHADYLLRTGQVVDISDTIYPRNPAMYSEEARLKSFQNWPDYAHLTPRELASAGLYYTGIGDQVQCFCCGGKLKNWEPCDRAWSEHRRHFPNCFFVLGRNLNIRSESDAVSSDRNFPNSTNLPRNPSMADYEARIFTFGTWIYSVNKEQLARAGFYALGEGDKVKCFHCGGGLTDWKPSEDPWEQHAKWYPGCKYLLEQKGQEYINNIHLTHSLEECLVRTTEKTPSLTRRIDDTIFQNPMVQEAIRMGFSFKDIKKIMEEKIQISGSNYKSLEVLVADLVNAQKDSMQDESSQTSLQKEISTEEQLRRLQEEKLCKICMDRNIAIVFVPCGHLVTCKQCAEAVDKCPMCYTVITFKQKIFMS

[19] = biological target: T6, E3 ubiquitin-protein ligase XIAP; assay: SAR analysis of Antagonists of XIAP-Bir3 domain of IAP-family anti-apoptotic proteins. [Related pubchem assays (depositor defined):AID1018, AID1449, AID1513, AID1514, AID1638]
[20] = biological target: Potassium voltage-gated channel subfamily KQT member 2 (Rattus norvegicus, UniProt O88943); assay: KCNQ2 channel activators, analog series, SAR follow-up, automated patch clamp, KCNQ2-CHO cells (AID 493113); type: functional
Potassium voltage-gated channel subfamily KQT member 2, sequence (O88943 whole entry): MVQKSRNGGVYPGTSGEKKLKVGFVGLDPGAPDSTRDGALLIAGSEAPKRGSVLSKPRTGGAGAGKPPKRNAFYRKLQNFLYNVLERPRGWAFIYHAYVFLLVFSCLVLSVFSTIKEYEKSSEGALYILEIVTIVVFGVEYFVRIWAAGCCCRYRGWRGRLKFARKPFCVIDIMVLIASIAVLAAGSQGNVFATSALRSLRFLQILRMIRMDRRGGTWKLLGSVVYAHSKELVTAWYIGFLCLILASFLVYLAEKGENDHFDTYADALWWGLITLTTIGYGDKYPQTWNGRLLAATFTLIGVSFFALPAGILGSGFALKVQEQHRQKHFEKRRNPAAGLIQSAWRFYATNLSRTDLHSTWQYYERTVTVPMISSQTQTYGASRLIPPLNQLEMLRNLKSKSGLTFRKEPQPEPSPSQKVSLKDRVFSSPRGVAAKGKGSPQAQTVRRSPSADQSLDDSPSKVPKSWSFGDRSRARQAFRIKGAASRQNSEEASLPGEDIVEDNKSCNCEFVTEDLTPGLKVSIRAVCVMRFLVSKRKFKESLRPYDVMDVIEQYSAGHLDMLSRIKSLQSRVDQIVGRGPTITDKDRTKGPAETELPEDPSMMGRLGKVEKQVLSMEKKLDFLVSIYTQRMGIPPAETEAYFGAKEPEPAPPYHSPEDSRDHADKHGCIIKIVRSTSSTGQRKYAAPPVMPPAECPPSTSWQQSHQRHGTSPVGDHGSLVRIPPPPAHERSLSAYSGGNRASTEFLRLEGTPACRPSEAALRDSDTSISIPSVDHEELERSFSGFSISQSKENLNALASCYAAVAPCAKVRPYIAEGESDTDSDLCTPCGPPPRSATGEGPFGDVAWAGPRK

COC(=O)CN1C(=O)N/C(=C/c2ccccc2OC)C1=O
AC50 [1]: 60.7 µM (active)

CC(/C=C1\SC(=S)N(C(C(=O)O)c2ccccc2)C1=O)=C\c1ccccc1 (stereo not given)
IC50 [2]: 12.4 µM (active)
IC50 [3]: > 73.5 µM (not active)
IC50 [4]: 10.9 µM (active)
IC50 [5]: > 59.6 µM (not active)
IC50 [6]: 26.8 µM (active)
IC50 [7]: 38.5 µM (active)

c1ccc(-c2ccccc2OCCOCCN2CCc3ccccc3C2)cc1
IC50 [8]: 3.85 µM (active)
IC50 [9]: 2.55 µM (active)

O=C(CSc1nc2nn(-c3ccccc3)c(=O)c-2c2n1CCCCC2)c1ccc(O)c(O)c1
AC50 [10]: 2.62 µM (active)
IC50 [11]: > 100 µM (inactive)
IC50 [12]: > 100 µM (inactive)
IC50 [13]: 9.04 µM (active)

O=C(c1ccccc1)c1ccc(OCC(O)CN2CCN(Cc3ccccc3)CC2)cc1 (stereo not given)
AC50 [14]: inconclusive

Cc1cc(NC(c2cccnc2)c2ccc3cccnc3c2O)no1 (stereo not given)
IC50 [8]: 3.65 µM (active)
IC50 [9]: 3.53 µM (active)
IC50 [15]: 7.09 µM (active)
EC50 [16]: > 350 µM (not active)
EC50 [17]: 11.9 µM (active)

CN[C@@H](C)C(=O)N[C@H](C(=O)N[C@@H](C)C(=O)Nc1cccc2ncccc12)C(C)C
IC50 [18]: > 100 µM (inactive)
IC50 [19]: > 100 µM (inactive)

CC(C)[C@H](NC(=O)[C@H](C)N)C(=O)N[C@@H](C)C(=O)Nc1cccc2ccccc12
IC50 [18]: 1.8 µM (active)
IC50 [19]: 103 µM (active)

Cc1ccc(NC(=O)C2CC3CCC2C3)cc1 (stereo not given)
EC50 [20]: 0.75 µM (active)

Cc1cccc(NC(=O)C2CC3CCC2C3)c1C (stereo not given)
EC50 [20]: 1 µM (active)

Source: ChEMBL document CHEMBL1201862, “PubChem BioAssay data set” (2004)
